Reference: PubChem BioAssay (NCI)
Values joined by “and” are separate entries in the source; they are usually repeats but may differ in a detail not shown here. Identical values can stand only once.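 A five-concentration, 48-hour dose response in 96-well plates underlies each endpoint, interpolated linearly between surrounding concentrations. GI50: concentration for 50% inhibition of growth. TGI denotes the concentration required for complete inhibition of growth.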

Experiments:
Assay in all cases: NCI-60 cell line screen, 48 h
[1] = test system: MCF7 breast
[2] = test system: OVCAR-5 ovarian
[3] = test system: NCI-H460 lung
[4] = test system: KM12 colon
[5] = test system: NCI-H23 lung
[6] = test system: A549 NSCLC
[7] = test system: OVCAR-4 ovarian
[8] = test system: RPMI-8226 leukemia
[9] = test system: UACC-62 melanoma
[10] = test system: A498 renal

Row | SMILES | TGI [1] | TGI [2] | TGI [3] | TGI [4] | TGI [5] | TGI [6] | TGI [7] | TGI [8] | TGI [9] | TGI [10] [µM] | GI50 [1] | GI50 [2] | GI50 [3] | GI50 [4] | GI50 [5] | GI50 [6] | GI50 [7] | GI50 [8] | GI50 [9] | GI50 [10]
1 | C=C1C(=O)OC2/C=C(/C)C(OC(C)=O)CC(O)/C(C)=C\C(OC(=O)/C(C)=C\C)C12 (stereo not drawn) | > 100 µM | > 100 µM | > 100 µM | > 100 µM | > 100 µM | > 100 µM | > 100 µM | > 100 µM | > 100 µM | > 100 |  |  |  |  |  |  |  |  |  | 
2 | COc1ccc2c(c1)C(=O)c1c-2c(N(C)C)nc2ccccc12 | > 100 µM | > 100 µM | > 100 µM | > 100 µM | > 100 µM | > 100 µM | > 100 µM | > 100 µM | > 100 µM | > 100 | > 100 µM | > 100 µM | > 100 µM | > 100 µM | > 100 µM | > 100 µM | 90.2 µM | > 100 µM | > 100 µM | > 100 µM
3 | CCOc1cc2ncc(C#N)c(Nc3ccc(OCc4ccccn4)c(Cl)c3)c2cc1NC(=O)/C=C/CN(C)C | 3.22 µM and > 6 µM | 7.82 µM and > 10 µM | 2.88 µM and > 9.38 µM | 5.29 µM and > 7.34 µM | 22.2 µM and > 10 µM | 1.94 µM and > 10 µM | 2.44 µM and > 10 µM | 4.38 µM and 3.79 µM | 3.87 µM and > 10 µM |  | 1.65 µM and 0.927 µM | 0.416 µM and 0.351 µM | 1.01 µM and 0.891 µM | 1.52 µM and 1.98 µM | 2.63 µM and > 4.56 µM | 0.371 µM and 0.377 µM | 0.49 µM and 0.48 µM | 1.11 µM and 0.695 µM | 1.28 µM and 0.842 µM | 0.124 µM and 0.153 µM
4 | COc1cc([C@H]2OC[C@H]3[C@@H]2CO[C@@H]3c2cc(OC)c3c(c2)OCO3)cc(OC)c1OC | > 100 µM | > 100 µM | > 100 µM | > 100 µM | > 100 µM | > 100 µM | > 100 µM | > 100 µM | > 100 µM | > 100 |  |  |  |  |  |  |  |  |  | 
5 | Cc1ccc(S(=O)(=O)Nc2cccc3[nH]c(C(F)(F)F)nc23)cc1 | > 54.5 µM | > 74.1 µM | > 38.4 µM | 26.8 µM | 41.5 µM | > 45.8 µM | 80.9 µM | 13.7 µM | > 54 µM | 1.82 | 0.389 µM | 1.85 µM | 0.398 µM | 0.347 µM | 1.66 µM | 0.653 µM | 1.54 µM | 0.772 µM | 0.62 µM | 0.262 µM
6 | C/C=C(\C)C(=O)O[C@H]1C=CC(=O)O[C@@H]1CC[C@H](O)[C@H](C)O | > 100 µM | > 100 µM | > 100 µM | > 100 µM | > 100 µM | > 100 µM | 97.5 µM | 58.7 µM | > 73.9 µM | > 100 | 32.6 µM | > 100 µM | > 77.3 µM | 48.2 µM | 69.1 µM | > 75.1 µM | 41.6 µM | 22.8 µM | 38.5 µM | > 100 µM
7 | COc1cccc(-n2ncc3c(N/N=C/c4ccncc4)ncnc32)c1 | > 25 µM | > 25 µM | > 25 µM | > 25 µM | > 25 µM | > 25 µM | > 25 µM | > 25 µM | > 25 µM |  | > 12.2 µM | > 25 µM | 2.57 µM | 2.9 µM | > 25 µM | > 14.5 µM | > 25 µM | > 25 µM | 4.28 µM | 0.326 µM
8 | Nc1[nH]nc2nc(-c3cccs3)cc(C(F)(F)F)c12 | > 25 µM | > 25 µM | > 25 µM | > 25 µM | > 25 µM | > 25 µM | > 25 µM | > 25 µM | > 25 µM | > 25 | > 15.8 µM | > 25 µM | > 25 µM | 12 µM | > 25 µM | 24.3 µM | > 25 µM | > 25 µM | > 25 µM | > 23.7 µM
9 | CC[C@H](CO)Nc1nc(NCc2ccccc2)n2ncc(C(C)C)c2n1 | 7.99 µM | 15 µM | 10.9 µM | 2.79 µM | 7.79 µM | 41.4 µM | 37 µM | 6.93 µM | 5.5 µM | 3.44 | 0.592 µM | 1.85 µM | 1.05 µM | 0.711 µM | 1.71 µM | 1.58 µM | 2.58 µM | 2.23 µM | 1.37 µM | 1.25 µM
10 | CS[C@]12C(=O)C[C@@]3(C)[C@@H](CC[C@]3(O)C(=O)CO)[C@@H]1CCC1=CC(=O)CC[C@@]12C | > 100 µM | > 100 µM | > 100 µM | > 100 µM | > 100 µM | > 100 µM | > 100 µM | > 100 µM | > 100 µM | > 100 |  |  |  |  |  |  |  |  |  | 
11 | Nc1nc(Nc2ccc(C3CCC(N4CCOCC4)CC3)cc2)nn1-c1ccccn1 (stereo not drawn) | 35.3 µM | > 100 µM | > 69.2 µM | 38 µM | 47.7 µM | > 100 µM | > 84.9 µM | 6.1 µM | > 88.3 µM | 20.1 | 3.23 µM | 4.17 µM | 4.59 µM | 0.18 µM | 2.61 µM | 4.08 µM | 12.4 µM | 2.57 µM | 7.27 µM | 5 µM
12 | CC#CC(=O)SCCNC(=O)CC | > 10 µM | > 10 µM | > 10 µM | > 10 µM | > 10 µM | > 10 µM | > 10 µM | > 10 µM | > 10 µM | > 10 |  |  |  |  |  |  |  |  |  | 
13 | COc1c(Cl)cc(NC(=S)C#N)cc1Cl | 92.9 µM | > 100 µM | 68.2 µM | 85.6 µM | 44.6 µM | > 100 µM | 97.9 µM | > 58.7 µM | 30.8 µM | 44.5 |  |  |  |  |  |  |  |  |  | 
14 | CC1=C(CO)C(=O)O[C@@H]([C@@H](C)[C@H]2CC[C@H]3[C@@H]4C[C@@H](O)[C@@]5(O)CC=CC(=O)[C@]5(C)[C@H]4CC[C@]23C)C1 | > 100 µM | > 100 µM | 38.3 µM | 58.8 µM | 49.4 µM | > 100 µM | > 100 µM | 92.2 µM | > 100 µM | 39.5 |  |  |  |  |  |  |  |  |  | 
15 | O=C(Nc1ccc(Cl)cc1)Nc1ccc(Nc2nncc3ccccc23)cc1 | 8.33 µM | 34.3 µM | 11.9 µM | 11.4 µM | 14.4 µM | 19.3 µM | 8.17 µM | 8.75 µM | 7.97 µM | 18.8 | 1.43 µM | 4.15 µM | 2.91 µM | 1.47 µM | 3.07 µM | 3.03 µM | 1.97 µM | 2.5 µM | 0.958 µM | 3.79 µM
